# Data: patent US20130280188A1, “SELF-TANNING COSMETIC” (KAO CORPORATION, priority 2012, published 2013)
# What was measured:
# olfactory receptor OR5K1 [1] = target: T1, olfactory receptor OR5K1 (Homo sapiens, UniProt Q8NHB7); test: Luciferase reporter gene assay of olfactory receptor response in HEK293 cells; type: cell-based; details: for Concentration-dependent response of OR5K1: 0, 3, 10, 30, 100, 300, and 1000 μM, HEK293 cells with RTP1S variant, FIG. 5
# T1 construct: expressed in transfected cells; host or cells: HEK293
# T1 sequence (Q8NHB7 1-308): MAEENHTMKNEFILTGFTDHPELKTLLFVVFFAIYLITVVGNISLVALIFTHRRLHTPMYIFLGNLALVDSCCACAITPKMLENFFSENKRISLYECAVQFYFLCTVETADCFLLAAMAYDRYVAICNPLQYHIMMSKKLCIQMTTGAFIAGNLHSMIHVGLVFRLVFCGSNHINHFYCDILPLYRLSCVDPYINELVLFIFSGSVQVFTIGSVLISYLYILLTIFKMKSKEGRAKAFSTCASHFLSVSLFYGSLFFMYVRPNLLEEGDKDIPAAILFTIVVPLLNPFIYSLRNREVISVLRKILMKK
# Excerpt: Human olfactory receptors were cloned based on sequence information registered in GenBank by PCR using human genomic DNA female (G1521: Promega Corporation) as a template. Each gene amplified by FCR was incorporated into pENTR vector (Invitrogen Inc.) in accordance with the manual and recombined to the NotI and AscI sites located downstream of a Flag-Rho tag sequence in a pME18S vector using the NotI and AscI sites present on the pENTR vector.
# An RTP1S variant gene (SEQ ID NO: 3) encoding an RTP1S variant (SEQ ID NO: 4) was incorporated into the EcoRI and XhoI sites of a pME18S vector.
# HEK293 cells expressing 373 types of human olfactory receptors were produced. A reaction solution having a composition shown in Table 2 was prepared, left to stand in a clean bench for 15 min and then was dispensed in each well of a 96 well plate (Becton, Dickinson and Company). Subsequently, HEK293 cells (100 μL, 3×10^5 cells/cm^2) were seeded in each well and cultured in an incubator at 37° C. under 5 mass % CO2 for 24 hours.
# An olfactory receptor expressed in HEK293 cells couples with endogenous Gas in the cells to activate adenylate cyclase and thereby increases the amount of intracellular cAMP. In this study, the odor response was measured by luciferase reporter gene assay which monitors an increase in amount of intracellular cAMP as the luminescence value derived from a firefly luciferase gene (fluc2P-CRE-hygro). A Renilla luciferase gene was fused with the downstream of a CMV promoter (hRluc-CMV) and was also introduced to HEK293 cells as an internal standard to correct errors in gene transfer efficiency and number of cells.
# The culture medium was removed from the culture produced in the above 3), and 75 μL of a solution prepared with a CD293 medium (Invitrogen Inc.) so as to contain a pyrazine derivative (1 mM 2,6-dimethylpyrazine) was added thereto. The cells were cultured in a CO2 incubator for 2.5 hours to sufficiently express the luciferase gene in the cells. The luciferase activity was measured with a Dual-Glo™ luciferase assay system (Promega Corporation) in accordance with the operating manual of the system. The fold increases were calculated by dividing the luminescence value derived from firefly luciferase induced by stimulation with the odor substances by the luminescence value in cells not stimulated with the odor substances and were used as an index of response strength.
# Olfactory receptor OR5K1 (SEQ ID NO: 2) was expressed in HEK293 cells together with an RTP1S variant (SEQ ID NO: 4) by the same procedure as in Test Example 3, and the dependency of the response on the concentration (0, 3, 10, 30, 100, 300, and 1000 μM) in various pyrazine compounds was investigated. The pyrazine compounds used in this Example were pyrazine and pyrazine derivatives selected from the group consisting of 2-methylpyrazine, 2,3-dimethylpyrazine, 2,5-dimethylpyrazine, 2,3,5-trimethylpyrazine, 2,3,5,6-tetramethylpyrazine, and 2-ethylpyrazine.
# olfactory receptor OR5K1 [2] = target: T1, olfactory receptor OR5K1; test: Antagonist activity against OR5K1 response to 2,6-dimethylpyrazine (luciferase assay, HEK293 cells); type: cell-based; details: HEK293 cells expressing OR5K1; for Receptor response-inhibiting rate: 2,6-dimethylpyrazine 1 mM and test material 300 μM (cytotoxic perfumes: 333 μM and 100 JAM); for Antagonist activity on the response of OR5K1 to pyrazine derivatives: 2,6-dimethylpyrazine 1 mM and test material 300 μM
# Experimental: Antagonist activities of 174 test materials against olfactory receptor OR5K1 were investigated by examining response of OR5K1 to a pyrazine derivative.
# 2,6-Dimethylpyrazine (1 mM) and each of the test materials (300 μM) were added to HEK293 cells expressing olfactory receptor OR5K1 by the same procedure as in Test Example 4, and the response of the olfactory receptor to 2,6-dimethylpyrazine was measured to evaluate a change in response of the receptor due to addition of the test material. Perfumes recognized to have cytotoxicity were re-evaluated using a mixture of 333 μM of 2,6-dimethylpyrazine and 100 JAM of a test material.
# The receptor response-inhibiting rate of a test material was calculated as follows. The receptor activity (X−Y) by stimulation with 2,6-dimethylpyrazine alone was determined by subtracting the luminescence value (Y) in cells to which the receptor was introduced but were not stimulated with 2,6-dimethylpyrazine from the luminescence value (X) derived from firefly luciferase induced by odor stimulation with 2,6-dimethylpyrazine alone. Similarly, the receptor activity (Z−Y) in the presence of a test material was determined by subtracting the luminescence value (Y) in cells not stimulated with 2,6-dimethylpyrazine from the luminescence value (Z) stimulated with a mixture of 2,6-dimethylpyrazine and the test material. The reduction rate of the receptor activity (Z−Y) in the presence of a test material to the receptor activity (X−Y) by stimulation with 2,6-dimethylpyrazine alone was calculated by the following computation expression:
# Inhibition rate (%)={1−(Z−Y)/(X−Y)}×100,
# to determine the receptor response-inhibiting rate of the test material. In the measurement, multiple independent experiments were performed in duplicate, and the average of each experiment was used.
SMILES,Concentration-dependent response of OR5K1 (olfactory receptor OR5K1 [1]),"Response of olfactory receptor OR5K1 (olfactory receptor OR5K1 [1]; 1 mM, screen of 373 types of human olfactory receptors in HEK293 cells, FIG. 4)",Antagonist activity on the response of OR5K1 to pyrazine derivatives (olfactory receptor OR5K1 [2]),Receptor response-inhibiting rate (olfactory receptor OR5K1 [2])
"Cc1cnc(C)c(C)n1 [2,3,5-trimethylpyrazine]",concentration-dependently responded,,,
"Cc1nccnc1C [2,3-dimethylpyrazine]",concentration-dependently responded,,,
"Cc1cnc(C)cn1 [2,5-Dimethyl pyrazine, 2,5-dimethylpyrazine]",concentration-dependently responded,,,
CCc1cnccn1 [2-ethylpyrazine],concentration-dependently responded,,,
"CC(=O)CCc1ccc(O)cc1 [Raspberry ketone, 4-(p-hydroxyphenyl)-2-butanone]",,,no antagonist activity,Not inhibited
"CCC=C(C)C(O)CCCCC (stereo not drawn) [Undecavertol, 4-methyl-3-decen-5-ol]",,,antagonist activity,75% or more

# More lines, main results first:
Concentration-dependent response of OR5K1 (olfactory receptor OR5K1 [1]),"Response of olfactory receptor OR5K1 (olfactory receptor OR5K1 [1]; 1 mM, screen of 373 types of human olfactory receptors in HEK293 cells, FIG. 4)",Antagonist activity on the response of OR5K1 to pyrazine derivatives (olfactory receptor OR5K1 [2]),SMILES,Receptor response-inhibiting rate (olfactory receptor OR5K1 [2])
concentration-dependently responded,,,"Cc1nc(C)c(C)nc1C [2,3,5,6-tetramethylpyrazine]",
concentration-dependently responded,responded,,"Cc1cncc(C)n1 [2,6-Dimethyl pyrazine, 2,6-dimethylpyrazine]",
concentration-dependently responded,,,"Cc1cnccn1 [2-Methyl pyrazine, 2-methylpyrazine]",
,,antagonist activity,"CCC(=CCC1CC=C(C)C1(C)C)CO (stereo not drawn) [Bangalol, 2-ethyl-4-(2,2,3-trimethyl-3-cyclopenten-1-yl)-2-buten-1-ol]",75% or more
,,antagonist activity,"CC(C=O)Cc1ccc(C(C)C)cc1 (stereo not drawn) [Cyclamen aldehyde, 2-methyl-3-(4-iso-propylphenyl)propanal]",75% or more
,,no antagonist activity,"CC(C)CC1CC(C)(O)CCO1 (stereo not drawn) [Florosa, 4-methyl-2-(2-methylpropyl)tetrahydro-2H-4-pyranol]",Not inhibited
,,no antagonist activity,"CCCCCC1C(=O)CCC1CC(=O)OC (stereo not drawn) [Methyl dihydrojasmonate, methyl dihydrojasmonate]",Not inhibited
did not respond,,,c1cnccn1 [pyrazine],
